Measurements as given in ChEMBL document CHEMBL1151631, “Plant anticancer agents, XXXIV. Cucurbitacins from Elaeocarpus dolichostylus” (1984).
In brackets after ≈: the same amount, converted by molar mass. Activity calls are given as the source filed them. The calls are words filed in the database; no cut-off is given here.

How the values were obtained:
L1210 = experiment: In vivo cytotoxicity against mouse L1210 cells at 300 to 400 mg/kg relative to control; assay type: functional, organism-based
KB = experiment: Cytotoxicity against human KB cells; assay type: functional; conditions: read-out: ED50 (the source's name)
P388 = experiment: Cytotoxicity against mouse P388 cells; assay type: functional; conditions: read-out: ED50 (the source's name)

Row | Structure (SMILES) | Activity (L1210) | EC50 (KB) [µg/mL] | EC50 (P388) [µg/mL]
1 | C[C@@H]1CC=CC2=C1C(=O)[C@H]1[C@H](CCN3CCC[C@H]13)O2 | inactive |  | 
2 | CC(C)(O)/C=C/C(=O)[C@](C)(O)[C@H]1[C@H](O)C[C@@]2(C)[C@@H]3CC=C4[C@@H](C[C@H](O)[C@@H](O)C4(C)C)[C@]3(C)C(=O)C[C@]12C [CUCURBITACIN F] |  | 0.074 (≈ 0.143 µM) | 0.04 (≈ 0.0771 µM)
3 | Cc1cccc2c1C(=O)[C@H]1[C@H](CCN3CCC[C@H]13)O2 | inactive |  | 
4 | CC(C)(O)CCC(=O)[C@](C)(O)[C@H]1[C@H](O)C[C@@]2(C)[C@@H]3CC=C4[C@@H](C[C@H](O)[C@@H](O)C4(C)C)[C@]3(C)C(=O)C[C@]12C |  | > 50 | > 50
5 | Cc1cccc2c1C(=O)C1[C@H]3CCCN3CC[C@H]1O2 (some centres undefined) | inactive |  | 
6 | CC(=O)[C@H]1[C@H](O)C[C@@]2(C)[C@@H]3CC=C4[C@@H](C[C@H](O)[C@@H](O)C4(C)C)[C@]3(C)C(=O)C[C@]12C [HEXANORCUCURBITACIN F] |  | > 50 | > 50
